For the experiment, the target named is B-Raf (V600E)-kinase (Homo sapiens (Human), UniProt P15056, V600E). The experiment in a line: Kinase test B-RAF (V600E). The following applies: B-RAF (V600E) kinase test, 250 μM ATP. The class given is biochemical. The method, boiled down: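 B-Raf (V600E) (0.5 ng) preincubated with compound 24 h at RT (5% DMSO), then reacted 60 min at RT with 250 μM ATP and biotinylated MEK1 as substrate. Phospho-MEK (Ser217/221) captured on streptavidin and detected by europium time-resolved fluorescence; IC50 from dose-response curves.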
Chain of B-Raf (V600E)-kinase (P15056 whole entry V600E): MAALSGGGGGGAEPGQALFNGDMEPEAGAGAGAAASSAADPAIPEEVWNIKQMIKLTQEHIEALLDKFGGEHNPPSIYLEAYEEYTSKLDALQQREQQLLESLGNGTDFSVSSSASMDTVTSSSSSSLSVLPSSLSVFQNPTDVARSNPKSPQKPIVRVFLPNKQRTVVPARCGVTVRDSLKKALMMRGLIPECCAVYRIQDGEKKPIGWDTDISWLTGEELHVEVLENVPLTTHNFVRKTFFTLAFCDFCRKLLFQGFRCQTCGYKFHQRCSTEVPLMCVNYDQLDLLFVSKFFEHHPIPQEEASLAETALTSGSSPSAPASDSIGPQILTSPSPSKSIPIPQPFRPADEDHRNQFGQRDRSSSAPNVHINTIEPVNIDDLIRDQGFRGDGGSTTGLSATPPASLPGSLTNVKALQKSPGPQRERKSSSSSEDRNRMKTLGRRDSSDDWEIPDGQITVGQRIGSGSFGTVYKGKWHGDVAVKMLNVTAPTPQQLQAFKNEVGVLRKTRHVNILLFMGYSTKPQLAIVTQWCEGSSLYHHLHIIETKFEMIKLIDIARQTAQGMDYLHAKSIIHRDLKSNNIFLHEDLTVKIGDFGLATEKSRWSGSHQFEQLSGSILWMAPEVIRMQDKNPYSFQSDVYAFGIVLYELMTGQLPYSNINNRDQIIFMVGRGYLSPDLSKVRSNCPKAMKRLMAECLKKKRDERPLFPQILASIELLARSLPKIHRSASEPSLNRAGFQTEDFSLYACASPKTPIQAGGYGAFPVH

Molecules are shown by their SMILES.

As usually defined, the IC50 is the concentration needed to halve the response being measured. Lower therefore signals higher potency.

In turn, `Cc1ccc(C(=O)Nc2cccc(C(F)(F)F)c2)cc1Nc1ncnc2c(N)nc(N3CC(C)NC(C)C3)nc12` (stereo not drawn) [I-62] showed an IC50 of 2 nM. In other words, the single-digit nanomolar range.
`Cc1ccc(C(=O)Nc2cc(CN3CCCC3)cc(C(F)(F)F)c2)cc1Nc1ncnc2cncnc12` [V-8] had an IC50 of 4 nM.
As for `Cc1ccc(C(=O)Nc2ccc(C#N)c(C(F)(F)F)c2)cc1Nc1ncnc2cnc(N(C)CCN(C)C)nc12` [III-281], the figure is 5 nM.
In turn, `Cc1ccc(C(=O)Nc2cc(CN3CCCC3)cc(C(F)(F)F)c2)cc1Nc1ncnc2cnc(N3CC[C@H](F)C3)nc12` [III-459] had an IC50 of 2 nM. Compared with the last compound, the IC50 is about 2.5-fold lower.
As for `Cc1ccc(C(=O)Nc2cc(C(C)(C)C)nn2C)cc1Nc1ncnc2cncnc12` [V-10], the figure is 14 nM; as for `COc1ccc(C(=O)Nc2cc(C(C)(C)C)on2)cc1Nc1ncnc2cnc(N3CCCN(C)CC3)nc12` [III-96], 2 nM.
Then `Cn1nc(C(C)(C)C)cc1NC(=O)c1cc(Cl)cc(Nc2ncnc3cnc(N4CCCC4)nc23)c1Cl` [III-374], with 2000 nM; and `Cc1ccc(C(=O)Nc2cccc(C(C)(C)C#N)c2)cc1Nc1ncnc2cnc(N3CCCCC3)nc12` [III-213], with 3 nM; and `COCCN1CCN(c2ncc3ncnc(Nc4cc(C(=O)Nc5ccc(OC)c(C(F)(F)F)c5)ccc4C)c3n2)CC1` [III-427], with 2 nM.
In turn, `CCN1CCN(c2cc(NC(=O)c3ccc(C)c(Nc4ncnc5cnc(N6CC[C@H](F)C6)nc45)c3)cc(C(F)(F)F)c2)CC1` [III-439] registered an IC50 of 4 nM.
For `Cc1ccc(C(=O)Nc2ccc(F)c(C(F)(F)F)c2)cc1Nc1ncnc2cnc(N3CCN(C)CC3)nc12` [III-297], the IC50 was 1 nM.
Take `Cc1ccc(C(=O)NCc2ccc(C(C)(C)C)cc2)cc1Nc1ncnc2cnc(N3CCOCC3)nc12` [III-302]: it took 115 nM to reach half-maximal inhibition (IC50).
`Cc1ccc(C(=O)Nc2cc(N3CCN(C)CC3)cc(C(F)(F)F)c2)cc1Nc1ncnc2cnc(N3CCOCC3)nc12` [III-462] returned an IC50 of 1 nM.
As for `Cc1ccc(C(=O)Nc2cc(C(C)(C)C)n[nH]2)cc1Nc1ncnc2cnc(N3CCCN(C)CC3)nc12` [III-446], the figure is 6 nM; as for `Cc1ccc(C(=O)Nc2ccc(Cl)c(C(F)(F)F)c2)cc1Nc1ncnc2cnc(N(C)CCN(C)C)nc12` [III-235], 2 nM.
With `CNc1ncnc2c(Nc3cccc(NC(=O)c4cccc(C(C)(C)C#N)c4)c3)ncnc12` [VIII-3], 13 nM corresponded to half-maximal inhibition (IC50). This IC50 lies about 6.5-fold higher than the previous one.
As for `COc1ncc2ncnc(Nc3cc(C(=O)Nc4cccc(C(F)(F)F)c4)ccc3C)c2n1` [III-568], the figure is 1 nM; as for `CN1CCCN(c2nc(N)c3ncnc(Nc4cc(C(=O)Nc5cccc(C(F)(F)F)c5)ccc4Br)c3n2)CC1` [I-27], 83 nM; as for `Cc1ccc(C(=O)Nc2cc(C(C)(C)C)n[nH]2)cc1Nc1ncnc2c(N)nc(N3CCN(CC4CCCN(C)C4)CC3)nc12` (stereo not drawn) [I-40], 3 nM.
As to `Cc1ccc(C(=O)Nc2cc(C(C)(C)C)on2)cc1Nc1ncnc2cnc(N3CCN(CC4CCN(C)CC4)CC3)nc12` [III-420], the IC50 was determined as 1 nM. Against the preceding compound, the IC50 is about 3-fold lower.
As for `COc1ccc(NC(=O)c2ccc(C)c(Nc3ncnc4cnc(N5CCN(C6CC6)CC5)nc34)c2)cc1C(F)(F)F` [III-433], the figure is 7 nM; as for `Cc1ccc(C(=O)Nc2ccc(Cl)c(C(F)(F)F)c2)cc1Nc1ncnc2cnc(N3CC[C@H](F)C3)nc12` [III-289], 13 nM.
As for `Cc1ccc(NC(=O)c2cccc(C(F)(F)F)c2)cc1Nc1ncnc2c(N)nc(N3CCNCC3)nc12` [II-19], the figure is 9 nM; as for `Cc1ccc(C(=O)Nc2ccc(F)c(C(F)(F)F)c2)cc1Nc1ncnc2cnc(N3CCCC3)nc12` [III-265], 4 nM; as for `Cc1ccc(NC(=O)c2cccc(C(F)(F)F)c2)cc1Nc1ncnc2cnc(N3CCN(C)CC3)nc12` [IV-3], 12 nM.
With `CN1CCCN(c2ncc3ncnc(Nc4cc(C(=O)Nc5cc(C(C)(C)C)on5)ccc4Cl)c3n2)CC1` [III-70], 4 nM corresponded to half-maximal inhibition (IC50).
Then `Cc1ccc(C(=O)Nc2cccc(OC(F)(F)F)c2)cc1Nc1ncnc2cnc(N3CCN(C)CC3)nc12` [III-301], with < 1 nM; and `CN1CCN(c2ncc3ncnc(Nc4cc(C(=O)Nc5cc(C(C)(C)C)on5)ccc4F)c3n2)CC1` [III-318], with 2 nM.
As for `Cc1ccc(C(=O)Nc2cc(CN3CCCC3)c(Cl)c(C(F)(F)F)c2)cc1Nc1ncnc2cnc(N3CCOCC3)nc12` [III-528], the figure is 2 nM; as for `CC(C)N1CCN(c2ncc3ncnc(Nc4cc(C(=O)Nc5cc(C(C)(C)C)on5)ccc4F)c3n2)CC1` [III-396], 3 nM.
As for `CN1CCN(c2ncc3ncnc(Nc4cc(C(=O)Nc5cc(C(C)(C)C)on5)ccc4Cl)c3n2)CC1` [III-72], the figure is 4 nM; as for `COc1ccc(NC(=O)c2ccc(C)c(Nc3ncnc4cnc(N5CCN6CCCCC6C5)nc34)c2)cc1C(F)(F)F` (stereo not drawn) [III-555], 18 nM; as for `COCCN1CCN(c2ncc3ncnc(Nc4cc(C(=O)Nc5ccc(OC)c(C(F)(F)F)c5)ccc4F)c3n2)CC1` [III-402], 2 nM.
For the compound `Cc1ccc(NC(=O)c2cc(C(C)(C)C)nn2C)cc1Nc1ncnc2cnc(N(C)CCCN(C)C)nc12` [IV-24], the IC50 was determined as 72 nM. Compared with the last compound, the IC50 is about 36-fold higher.
As for `COc1ccc(C(=O)Nc2cc(C(C)(C)C)on2)cc1Nc1ncnc2cnc(N3CCOCC3)nc12` [III-81], the figure is 2 nM.
Consider `Cc1ccc(C(=O)Nc2cc(N3CCN(C)CC3)cc(C(F)(F)F)c2)cc1Nc1ncnc2cnc(N(C)CCF)nc12` [III-518], for which half-maximal inhibition (IC50) was put at 2 nM.
Turning to `CN(C)C1CCN(c2ncc3ncnc(Nc4cc(C(=O)Nc5cc(C(C)(C)C)on5)ccc4F)c3n2)CC1` [III-401], half-maximal inhibition (IC50) required 3 nM.
Regarding `CN1CCN(c2cc(NC(=O)c3ccc(F)c(Nc4ncnc5cnc(NC6CCOC6)nc45)c3)cc(C(F)(F)F)c2F)CC1` (stereo not drawn) [III-389], the IC50 was < 1 nM.
Then `Cc1ccc(C(=O)Nc2cc(C(C)(C)C)on2)cc1Nc1ncnc2cnc(N(C)C3CC(N4CCN(C)CC4)C3)nc12` (stereo not drawn) [III-596], with 2 nM.
In turn, `CN(CCN1CCCC1)c1ncc2ncnc(Nc3cc(C(=O)Nc4cc(C(C)(C)C)on4)ccc3Cl)c2n1` [III-71] came in with an IC50 of 3 nM. This IC50 lies about 1.5-fold higher than the previous one.
Then `Cc1ccc(C(=O)NC2CC2)cc1Nc1ncnc2cnc(N3CCCC3)nc12` [III-260], with 2000 nM.
As for `Cc1ccc(NS(=O)(=O)C2CCCCC2)cc1Nc1ncnc2cnc(N3CCN(C)CC3)nc12` [IV-55], the figure is 10000 nM.
Take `Cc1ccc(C(=O)Nc2cccc(S(=O)(=O)N(C)C)c2)cc1Nc1ncnc2cnc(N3CCCN(C)CC3)nc12` [III-251]: the half-maximal inhibitory concentration (IC50) stood at 19 nM.
Take `Cc1ccc(C(=O)Nc2ccc(C#N)c(C(F)(F)F)c2)cc1Nc1ncnc2cnc(N3CCCC3)nc12` [III-273]: 31 nM corresponded to half-maximal inhibition (IC50).
On to `COc1c(NC(=O)c2ccc(C)c(Nc3ncnc4cnc(N5CCCC5)nc34)c2)cc(C(C)(C)C)cc1NS(C)(=O)=O` [III-277], for which the IC50 was 23 nM.
On to `COc1ccc(C(=O)Nc2ccc(OC)c(C(F)(F)F)c2)cc1Nc1ncnc2cnc(N3CCN(C)CC3)nc12` [III-22], for which the midpoint of inhibition, the IC50, lay at 6 nM. Compared with the last compound, the IC50 is about 3.8-fold lower.
As for `CC(C)(C)c1cc(NC(=O)c2ccc(Cl)c(Nc3ncnc4cnc(N5CCCCC5)nc34)c2)no1` [III-73], the figure is 4 nM.
On to `Cc1ccc(C(=O)Nc2cccc(C(C)(C)C#N)c2)cc1Nc1ncnc2cnc(NCC(C)C)nc12` [III-520], for which the IC50 was 2 nM.
Then `COc1ccc(NC(=O)c2ccc(Cl)c(Nc3ncnc4cnc(N5CCCCCC5)nc34)c2)cc1C(F)(F)F` [III-6], with 7 nM; and `COc1ccc(C(=O)Nc2ccc(OC)c(C(F)(F)F)c2)cc1Nc1ncnc2cnc(NCCN3CCOCC3)nc12` [III-28], with 3 nM; and `Cc1ccc(C(=O)Nc2cccc(C(F)(F)F)c2)cc1Nc1ncnc2cnc(NC3CCOC3)nc12` (stereo not drawn) [III-349], with < 1 nM.
Then `COc1ccc(NC(=O)c2ccc(C)c(Nc3ncnc4cnc(N(C)CC5CCCO5)nc34)c2)cc1C(F)(F)F` (stereo not drawn) [III-543], with 3 nM; and `Cc1cn(-c2cc(NC(=O)c3ccc(C)c(Nc4ncnc5cnc(N6CCC(F)(F)C6)nc45)c3)cc(C(F)(F)F)c2)cn1` [III-450], with 3 nM.
As for `Cc1ccc(C(=O)Nc2cc(C(F)(F)F)ccn2)cc1Nc1ncnc2cnc(N3CCCC3)nc12` [III-275], the figure is 2 nM; as for `Cc1ccc(C(=O)NCc2cccc(C(F)(F)F)c2)cc1Nc1ncnc2cnc(N3CCCC3)nc12` [III-257], 61 nM; as for `Cc1ccc(C(=O)Nc2cccc(OC(F)(F)F)c2)cc1Nc1ncnc2cnc(N3CCCCC3)nc12` [III-332], 4 nM.
On to `Cc1ccc(C(=O)Nc2cccc(C(F)(F)F)c2)cc1Nc1ncnc2c(N)nc(N3CCN(C4CCCC4)CC3)nc12` [I-57], for which the IC50 is < 1 nM.
Regarding `CC(C)(C)c1cc(NC(=O)c2ccc(Cl)c(Nc3ncnc4cnc(N5CCCC5)nc34)c2)no1` [III-76], 11 nM corresponded to half-maximal inhibition (IC50).
As for `COCCN1CCC(Nc2ncc3ncnc(Nc4cc(C(=O)Nc5cc(C(C)(C)C)on5)ccc4C)c3n2)CC1` [III-594], the figure is 1 nM; as for `COc1ccc(NC(=O)c2ccc(F)c(Nc3ncnc4cnc(NCCN(C)C)nc34)c2)cc1C(F)(F)F` [III-39], 2 nM; as for `CN1CCC(CN2CCN(c3nc(N)c4ncnc(Nc5cc(C(=O)Nc6cccc(C(F)(F)F)c6)ccc5Br)c4n3)CC2)CC1` [I-29], 15 nM.
Then `Cc1ccc(C(=O)Nc2cc(C(C)(C)C)on2)cc1Nc1ncnc2cnc(N3CCN(C)CC3)nc12` [III-504], with 2 nM.
As for `Cc1ccc(C(=O)Nc2cccc(C(C)(C)C)c2)cc1Nc1ncnc2c(N)nc(N3CCN(C)CC3)nc12` [I-80], the figure is 2 nM.
On to `CN(C)CCNc1ncc2ncnc(Nc3cc(C(=O)Nc4cc(C(C)(C)C)on4)ccc3Cl)c2n1` [III-77], for which the IC50 is 2 nM.
Consider `Cc1ccc(C(=O)Nc2cc(C(C)(C)C)on2)cc1Nc1ncnc2c(N)nc(N3CCN(C)CC3)nc12` [I-9], for which half-maximal inhibition (IC50) was put at 3 nM.
`Cc1ccc(C(=O)NCC2CCOC2)cc1Nc1ncnc2cnc(N3CCCC3)nc12` (stereo not drawn) [III-256] showed an IC50 of 15000 nM.
